According to patent publication US20150344444A1, “BET-PROTEIN-INHIBITING DIHYDROXYQUINOXALINONES” (BAYER PHARMA AKTIENGESELLSCHAFT, priority 2012, published 2015):

These compounds were tested against T1, BRD4 Bromo Domain 2 [BRD4(2)] (Homo sapiens, UniProt O60885) (assay: BRD4(2)/acetylated peptide H4 binding assay (TR-FRET)). Conditions: inhibition of interaction between His6-tagged BRD4(2) (amino acids 357-445) and acetylated histone H4 peptide.
T1 construct: N-terminally His6-tagged BRD4(2) (amino acids 357-445); made in house; host or cells: E. coli
Description: Protein-Protein Interaction Assay: BRD4/Acetylated Peptide H4 Binding Assay
2. Assay Description for BRD4 Bromo Domain 2 [BRD4(2)]
To assess the BRD4(2) binding strength of the substances described in this application, the ability thereof to inhibit the interaction between BRD4(2) and acetylated histone H4 in a dose-dependent manner was quantified.
For this purpose, a time-resolved fluorescence resonance energy transfer (TR-FRET) assay was used, which measures the binding between N-terminally His6-tagged BRD4(2) (amino acids 357-445) and a synthetic acetylated histone H4 (Ac-H4) peptide with sequence SGRGK(Ac)GGK(Ac)GLGK(Ac)GGAK(Ac)RHRKVLRDNGSGSK-biotin. The recombinant BRD4(2) protein produced in house according to Filippakopoulos et al., Cell, 2012, 149:214-231 was expressed in E. coli and purified by means of (Ni-NTA) affinity and (Sephadex G-75) size exclusion chromatography. The Ac-H4 peptide can be purchased, for example, from Biosyntan (Berlin, Germany).
In the assay, typically 11 different concentrations of each substance (0.1 nM, 0.33 nM, 1.1 nM, 3.8 nM, 13 nM, 44 nM, 0.15 μM, 0.51 μM, 1.7 μM, 5.9 μM and 20 μM) were analysed as duplicates on the same microtitre plate. For this purpose, 100-fold concentrated solutions in DMSO were prepared by serial dilutions (1:3.4) of a 2 mM stock solution into a clear, 384-well microtitre plate (Greiner Bio-One, Frickenhausen, Germany). From this, 50 nl were transferred into a black test plate (Greiner Bio-One, Frickenhausen, Germany). The test was started by the addition of 2 μl of a 2.5-fold concentrated BRD4(2) solution (final concentration typically 100 nM in the 5 μl of reaction volume) in aqueous assay buffer [50 mM HEPES pH 7.5, 50 mM sodium chloride (NaCl); 50 mM potassium fluoride (KF); 0.25 mM CHAPS and 0.05% serum albumin (BSA)] to the substances in the test plate. This was followed by a 10-minute incubation step at 22° C. for the pre-equilibration of putative complexes between BRD4(2) and the substances.
The mixture was then incubated in the dark at 22° C. for one hour and then at 4° C. for at least 3 hours and for no longer than overnight. The formation of BRD4(2)/Ac-H4 complexes was determined by the measurement of the resonance energy transfer from the streptavidin-Eu chelate to the anti-6His-XL665 antibody present in the reaction. For this purpose, the fluorescence emission was measured at 620 nm and 665 nm after excitation at 330-350 nm in a TR-FRET measuring instrument, for example a Rubystar or Pherastar (both from BMG Lab Technologies, Offenburg, Germany) or a Viewlux (Perkin-Elmer). The ratio of the emissions at 665 nm and at 622 nm was taken as an indicator of the amount of BRD4(2)/Ac-H4 complexes formed.
The data (ratios) obtained were normalized, with 0% inhibition corresponding to the mean from the measurements for a set of controls (typically 32 data points) in which all the reagents were present. In these, in place of test substances, 50 nl of DMSO (100%) were used Inhibition of 100% corresponded to the mean from the measurements for a set of controls (typically 32 data points) in which all the reagents except BRD4(2) were present. The IC50 was determined by regression analysis based on a 4-parameter equation (minimum, maximum, IC50, Hill; Y=max+(min−max)/(1+(X/IC50)Hill)).

IC50 [nM] | SMILES
262 | C[C@@H]1C(=O)N(C)c2ccc(Nc3ccc(C(=O)NC4CCN(C)CC4)cc3)cc2N1Cc1c(F)cccc1F (stereo in doubt) [Example 39, 4-{[4-(2,6-difluorobenzyl)-1,3-dimethyl-2-oxo-1,2,3,4-tetrahydroquinoxalin-6-yl]amino}-N-(1-methylpiperidin-4-yl)benzamide]
386 | C[C@@H]1C(=O)N(C)c2ccc(Nc3ccc(C(=O)NC4CCC(N5CCN(CC6CC6)CC5)CC4)cc3)cc2N1Cc1c(F)cccc1F (stereo in doubt) [Example 40, N-{4-[4-(cyclopropylmethyl)piperazin-1-yl]cyclohexyl}-4-{[4-(2,6-difluorobenzyl)-1,3-dimethyl-2-oxo-1,2,3,4-tetrahydroquinoxalin-6-yl]amino}benzamide]
326 | C[C@@H]1C(=O)N(C)c2ccc(Nc3ccc(C(=O)NC4CCCC4)cc3)cc2N1C1CCCC1 [Example 1, N-cyclopentyl-4-{[(3R)-4-cyclopentyl-1,3-dimethyl-2-oxo-1,2,3,4-tetrahydroquinoxalin-6-yl]amino}benzamide]
222 | C[C@@H]1C(=O)N(C)c2ccc(Nc3ccc(C(=O)NC4CC4)cc3)cc2N1C1CCCC1 [Example 2, 4-{[(3R)-4-cyclopentyl-1,3-dimethyl-2-oxo-1,2,3,4-tetrahydroquinoxalin-6-yl]amino}-N-cyclopropylbenzamide]
85 | C[C@@H]1C(=O)N(C)c2ccc(Nc3ccc(S(=O)(=O)N(C)C)cc3)cc2N1C1CCCC1 [Example 3, 4-{[(3R)-4-cyclopentyl-1,3-dimethyl-2-oxo-1,2,3,4-tetrahydroquinoxalin-6-yl]amino}-N,N-dimethylbenzenesulphonamide]
80 | C[C@@H]1C(=O)N(C)c2ccc(Nc3ccc(C(=O)N4CCOCC4)cc3)cc2N1C1CCCC1 [Example 6, (3R)-4-cyclopentyl-1,3-dimethyl-6-{[4-(morpholin-4-ylcarbonyl)phenyl]amino}-3,4-dihydroquinoxalin-2(1H)-one]
159 | CC(C)NC(=O)c1ccc(Nc2ccc3c(c2)N(C2CCCC2)[C@H](C)C(=O)N3C)cc1 [Example 7, 4-{[(3R)-4-cyclopentyl-1,3-dimethyl-2-oxo-1,2,3,4-tetrahydroquinoxalin-6-yl]amino}-N-isopropylbenzamide]
171 | C[C@@H]1C(=O)N(C)c2ccc(Nc3ccc(C(=O)N(C)C)cc3)cc2N1C1CCCC1 [Example 8, 4-{[(3R)-4-cyclopentyl-1,3-dimethyl-2-oxo-1,2,3,4-tetrahydroquinoxalin-6-yl]amino}-N,N-dimethylbenzamide]
62 | C[C@@H]1C(=O)N(C)c2ccc(Nc3ccc(C(=O)NCC4COC4)cc3)cc2N1Cc1ccccc1 [Example 9, 4-{[(3R)-4-benzyl-1,3-dimethyl-2-oxo-1,2,3,4-tetrahydroquinoxalin-6-yl]amino}-N-(oxetan-3-ylmethyl)benzamide]
64 | C[C@@H]1C(=O)N(C)c2ccc(Nc3ccc(C(=O)NC4CC4)cc3)cc2N1Cc1ccccc1 [Example 10, 4-{[(3R)-4-benzyl-1,3-dimethyl-2-oxo-1,2,3,4-tetrahydroquinoxalin-6-yl]amino}-N-cyclopropylbenzamide]
107 | C[C@@H]1C(=O)N(C)c2ccc(Nc3ccc(C(=O)NC4CCN(C)CC4)cc3)cc2N1Cc1ccccc1 [Example 11, 4-{[(3R)-4-benzyl-1,3-dimethyl-2-oxo-1,2,3,4-tetrahydroquinoxalin-6-yl]amino}-N-(1-methylpiperidin-4-yl)benzamide]
47 | C[C@@H]1C(=O)N(C)c2ccc(Nc3ccc(C(=O)N4CCOCC4)cc3)cc2N1Cc1ccccc1 [Example 12, (3R)-4-benzyl-1,3-dimethyl-6-{[4-(morpholin-4-ylcarbonyl)phenyl]amino}-3,4-dihydroquinoxalin-2(1H)-one]
51 | C[C@@H]1C(=O)N(C)c2ccc(Nc3ccc(S(=O)(=O)N4CCOCC4)cc3)cc2N1Cc1ccccc1 [Example 13, (3R)-4-benzyl-1,3-dimethyl-6-{[4-(morpholin-4-ylsulphonyl)phenyl]amino}-3,4-dihydroquinoxalin-2(1H)-one]
78 | C[C@@H]1C(=O)N(C)c2ccc(Nc3ccc(S(=O)(=O)N(C)C)cc3)cc2N1Cc1ccccc1 [Example 14, 4-{[(3R)-4-benzyl-1,3-dimethyl-2-oxo-1,2,3,4-tetrahydroquinoxalin-6-yl]amino}-N,N-dimethylbenzenesulphonamide]
51 | C[C@@H]1C(=O)N(C)c2ccc(Nc3ccc(S(=O)(=O)N4CCN(C)CC4)cc3)cc2N1Cc1ccccc1 [Example 15, (3R)-4-benzyl-1,3-dimethyl-6-({4-[(4-methylpiperazin-1-yl)sulphonyl]phenyl}amino)-3,4-dihydroquinoxalin-2(1H)-one]
97 | C[C@@H]1C(=O)N(C)c2ccc(Nc3ccc(C(=O)N4CC5(CCS5(=O)=O)C4)cc3)cc2N1Cc1ccccc1 [Example 16, (3R)-4-benzyl-6-({4-[(1,1-dioxido-1-thia-6-azaspiro[3.3]hept-6-yl)carbonyl]phenyl}amino)-1,3-dimethyl-3,4-dihydroquinoxalin-2(1H)-one]
83 | COc1ccc(CN2c3cc(Nc4ccc(C(=O)NC5CCN(C)CC5)cc4)ccc3N(C)C(=O)[C@H]2C)cc1 [Example 17, 4-{[(3R)-4-(4-methoxybenzyl)-1,3-dimethyl-2-oxo-1,2,3,4-tetrahydroquinoxalin-6-yl]amino}-N-(1-methylpiperidin-4-yl)benzamide]
111 | COc1ccc(CN2c3cc(Nc4ccc(C(=O)N5CCOCC5)cc4)ccc3N(C)C(=O)[C@H]2C)cc1 [Example 18, (3R)-4-(4-methoxybenzyl)-1,3-dimethyl-6-{[4-(morpholin-4-ylcarbonyl)phenyl]amino}-3,4-dihydroquinoxalin-2(1H)-one]
110 | COc1ccc(CN2c3cc(Nc4ccc(C(=O)NCC5COC5)cc4)ccc3N(C)C(=O)[C@H]2C)cc1 [Example 19, 4-{[(3R)-4-(4-methoxybenzyl)-1,3-dimethyl-2-oxo-1,2,3,4-tetrahydroquinoxalin-6-yl]amino}-N-(oxetan-3-ylmethyl)benzamide]
43 | COc1ccc(CN2c3cc(Nc4ccc(C(=O)N5CC6(COC6)C5)cc4)ccc3N(C)C(=O)[C@H]2C)cc1 [Example 20, (3R)-4-(4-methoxybenzyl)-1,3-dimethyl-6-{[4-(2-oxa-6-azaspiro[3.3]hept-6-ylcarbonyl)phenyl]amino}-3,4-dihydroquinoxalin-2(1H)-one]
54 | COc1ccc(CN2c3cc(Nc4ccc(C(=O)NCCN5CCN(C)CC5)cc4)ccc3N(C)C(=O)[C@H]2C)cc1 [Example 21, 4-{[(3R)-4-(4-methoxybenzyl)-1,3-dimethyl-2-oxo-1,2,3,4-tetrahydroquinoxalin-6-yl]amino}-N-[2-(4-methylpiperazin-1-yl)ethyl]benzamide]
86 | COc1ccc(CN2c3cc(Nc4ccc(C(=O)N5CCN(C(C)C)CC5)cc4)ccc3N(C)C(=O)[C@H]2C)cc1 [Example 22, (3R)-4-(4-methoxybenzyl)-1,3-dimethyl-6-[(4-{[4-(propan-2-yl)piperazin-1-yl]carbonyl}phenyl)amino]-3,4-dihydroquinoxalin-2(1H)-one]
152 | C[C@@H]1C(=O)N(C)c2ccc(Nc3ccc(C(=O)NC4CCN(C)CC4)cc3)cc2N1C1CCCCCC1 [Example 23, 4-{[(3R)-4-cycloheptyl-1,3-dimethyl-2-oxo-1,2,3,4-tetrahydroquinoxalin-6-yl]amino}-N-(1-methylpiperidin-4-yl)benzamide]
102 | C[C@@H]1C(=O)N(C)c2ccc(Nc3ccc(C(=O)N4CCOCC4)cc3)cc2N1C1CCCCCC1 [Example 24, (3R)-4-cycloheptyl-1,3-dimethyl-6-{[4-(morpholin-4-ylcarbonyl)phenyl]amino}-3,4-dihydroquinoxalin-2(1H)-one]
